Measured values as given in patent publication US12447156B2, “Treating progressive familial intrahepatic cholestasis (PFIC) with IBAT inhibitors” (ALBIREO AB, priority 2020, dated 2025).
Values after ≈ are worked out from the molar mass of the structure shown.

Tests used:
patients with PFIC = assay: PEDFIC 2 open-label phase 3 extension trial, interim analysis: efficacy; type: in vivo, human; conditions: for mean change from baseline in sBAs through PEDFIC 2 week 12: odevixibat naive at PEDFIC 2 baseline
Method: After treatment in the first trial (Example 1), patients were eligible to enroll in a second trial, a 72-week open-label extension trial. In this ongoing 72-week open-label extension trial, PFIC patients were treated with odevixibat 120 μg/kg/day. The 69 patients (PFIC1 (26%), PFIC2 (65%) or PFIC3 (7%)) treated with 120 μg/kg/day for up to 48 weeks experienced a durable effect on serum bile acids reduction and improvement in growth velocity based on review of z scores for height, weight and BMI, and improvement in ALT, AST and total bilirubin. The effects were maintained for patients treated for 18 months or longer. The example details the interim analysis through 24 weeks of treatment.
Study Design • This phase 3 study included a screening period (for newly enrolled patients [i.e., cohort 2] only) and a 72-week treatment period (FIG. 9) in which all patients received oral, once-daily odevixibat 120 μg/kg. • Patients returned to the clinic 4 and 12 weeks after the first dose of odevixibat and then approximately every 10 to 12 weeks thereafter. • Following the 72-week treatment period, patients either enrolled in an optional extension for continued treatment or returned for a follow-up visit 4 weeks after ending study drug. Outcomes, Assessments, and Statistical Analysis • The primary efficacy outcomes were to assess the effects of odevixibat on sBAs and pruritus, including mean changes and proportion of patients meeting response criteria. • sBA responders were defined as patients who achieved a normalization of sBAs or reduction of ≥70%. • Pruritus responders were defined as patients who achieved a ≥1-point drop on the pruritus assessment. • Secondary outcomes included characterizing the long-term safety and tolerability of odevixibat, as well as the effects of odevixibat on growth, biliary diversion and/or liver transplantation, and markers of cholestasis and liver disease. • For the P1O and PIP groups, there were 2 baselines (PEDFIC 1 baseline and PEDFIC 2 baseline); for those in cohort 2, baseline refers to the value prior to initiation of odevixibat in PEDFIC 2. • This interim analysis focuses on data collected after 24 weeks of treatment in PEDFIC 2. • T tests were used to calculate P values for primary outcomes in the P1O group only; other outcomes were summarized descriptively.

[1] = Solubility of odevixibat in water; type: physicochemical; conditions: pH 7, 37° C.
Excerpt: It is desirable that the use of organic solvents in the preparation of the formulation is avoided. In some embodiments, water is used as the solvent for the preparation of the formulation. […] Because of this low solubility in water, aqueous suspensions of odevixibat can contain larger agglomerates of odevixibat, which may lead to an uneven distribution of the active pharmaceutical ingredient on the cores, i.e. the cores may contain different amounts of odevixibat, which in turn impacts dose uniformity. Accordingly, in some embodiments, the aqueous suspension of odevixibat is homogeneous. In some embodiments, a homogeneous aqueous suspension of odevixibat is sprayed onto the cores.

children with PFIC = assay: Pooled PEDFIC 1/2 subgroup analysis by concomitant UDCA and/or rifampicin; type: in vivo, human; conditions: for patients meeting criteria for serum bile acid response: after 48 weeks; for mean proportion of positive pruritus assessments (PPAs): over 48 weeks
Method: Methods: In the double-blind PEDFIC 1 study, children with PFIC1 or PFIC2 were randomized to placebo or odevixibat 40 or 120 μg/kg/day for 24 weeks. In PEDFIC 2, an ongoing, open label extension study, patients from PEDFIC 1 or new patients with any PFIC subtype received odevixibat 120 μg/kg/day. Concomitant UDCA and/or rifampicin were allowed if the patient was on a stable dose. This pooled analysis includes up to 48 weeks of odevixibat treatment from PEDFIC 1 and through the PEDFIC 2 interim data cut (37 weeks; range: 1-108 weeks). Pre-specified subgroup analyses evaluated the following outcomes based on use of UDCA and/or rifampicin: serum bile acid response (i.e., ≥70% reduction from baseline or serum bile acid levels ≤70 μmol/L after 48 weeks), proportion of positive pruritus assessments (PPAs) at the patient level (i.e., scratching score ≤1 or a ≥1-point drop from baseline on the validated PRUCISION instrument) over the 48-week treatment period, and treatment-emergent adverse events (TEAEs).

[2] = Cohort 2, through week 24 of PEDFIC 2, n 4
[3] = P1O, through week 24 of PEDFIC 2, n 21
[4] = P1P, through week 24 of PEDFIC 2, n 9
[5] = patients not using UDCA and/or rifampicin
[6] = patients using UDCA and/or rifampicin

CCCCC1(CCCC)CN(c2ccccc2)c2cc(SC)c(OCC(=O)N[C@@H](C(=O)N[C@@H](CC)C(=O)O)c3ccc(O)cc3)cc2S(=O)(=O)N1 [Odevixibat, 1,1-dioxo-3,3-dibutyl-5-phenyl-7-methylthio-8-(N-{(R)-α-[N-((S)-1-carboxypropyl)carbamoyl]-4-hydroxybenzyl}carbamoylmethoxy)-2,3,4,5-tetrahydro-1,2,5-benzothiadiazepine]
PELD/MELD, Mean Change From Baseline (SE) (patients with PFIC; Cohort 2, through week 24 of PEDFIC 2, n 2): 1.7 (5.8) | APRI, Mean Change From Baseline (SE) (patients with PFIC; [2]): 0.1 (0.2) | Serum ALT, Mean Change From Baseline (SE) (patients with PFIC; [2]): −9.8 (31.1) U/L | Serum AST, Mean Change From Baseline (SE) (patients with PFIC; [2]): −7.8 (16.2) U/L | Total bilirubin, Mean Change From Baseline (SE) (patients with PFIC; [2]): −0.2 (0.5) mg/dL | mean sBAs at PEDFIC 2 week 24 (patients with PFIC; P1O group, ~48 weeks cumulative odevixibat exposure, PEDFIC 1 baseline 251.8): 85.1 µmol/L | mean monthly pruritus score at PEDFIC 2 week 24 (patients with PFIC; P1O group, PEDFIC 1 baseline 3.0): 1.4 | mean height Z score at week 24 of PEDFIC 2 (patients with PFIC; P1O group, PEDFIC 1 baseline −1.6): −0.5 | mean weight Z score after 48 weeks (patients with PFIC; P1O group, baseline −0.9): 0.2 | PELD/MELD, Mean Change From Baseline (SE) (patients with PFIC; P1O, through week 24 of PEDFIC 2, n 17): −0.2 (0.3) | APRI, Mean Change From Baseline (SE) (patients with PFIC; P1O, through week 24 of PEDFIC 2, n 18): −0.0 (0.1) | Serum AST, Mean Change From Baseline (SE) (patients with PFIC; P1O, through week 24 of PEDFIC 2, n 20): −14.6 (10.0) U/L | Serum ALT, Mean Change From Baseline (SE) (patients with PFIC; [3]): −26.9 (22.6) U/L | Total bilirubin, Mean Change From Baseline (SE) (patients with PFIC; [3]): −0.2 (0.1) mg/dL | mean sBAs over the course of PEDFIC 2 (patients with PFIC; P1P group (placebo in PEDFIC 1), 120 μg/kg/day, PEDFIC 2 baseline 270.8): 155.6 µmol/L | APRI, Mean Change From Baseline (SE) (patients with PFIC; [4]): 0.1 (0.1) | PELD/MELD, Mean Change From Baseline (SE) (patients with PFIC; [4]): −1.4 (1.2) | Serum ALT, Mean Change From Baseline (SE) (patients with PFIC; [4]): 16.3 (20.7) U/L | Serum AST, Mean Change From Baseline (SE) (patients with PFIC; [4]): −1.7 (5.6) U/L | Total bilirubin, Mean Change From Baseline (SE) (patients with PFIC; [4]): −1.6 (1.3) mg/dL | patients who underwent surgical biliary diversion or had a liver transplant (patients with PFIC; PEDFIC 1 baseline through week 24 of PEDFIC 2, 2 patients): 3% | change in mean sBAs from baseline to week 12 of PEDFIC 2 (patients with PFIC; cohort 2 (newly enrolled), 120 μg/kg/day): -73.1 µmol/L | mean sBAs at week 12 of PEDFIC 2 (patients with PFIC; cohort 2 (newly enrolled), 120 μg/kg/day, baseline 221.5): 157.0 µmol/L | mean change from baseline in sBAs through PEDFIC 2 week 12 (patients with PFIC; PFIC1, n=5): −31.7 | mean change from baseline in sBAs through PEDFIC 2 week 12 (patients with PFIC; PFIC2, n=17): −120.8 | mean change from baseline in sBAs through PEDFIC 2 week 12 (patients with PFIC; PFIC3, n=3): −107.5 | average sBAs relative to published threshold for PFIC2 disease modification (patients with PFIC; patients treated for 48 weeks): fell below the published threshold for PFIC2 disease modification | solubility [1]: ~30 µg/mL (≈ 40.5 µM) | patients meeting criteria for serum bile acid response (children with PFIC; patients not using UDCA): 40% | patients meeting criteria for serum bile acid response (children with PFIC; [5]): 67% | patients meeting criteria for serum bile acid response (children with PFIC; patients not using rifampicin): 82% | patients meeting criteria for serum bile acid response (children with PFIC; patients using UDCA): 74% | patients meeting criteria for serum bile acid response (children with PFIC; [6]): 67% | patients meeting criteria for serum bile acid response (children with PFIC; patients using rifampicin): 54% | mean proportion of positive pruritus assessments (PPAs) (children with PFIC; patients not using UDCA): 72% | mean proportion of positive pruritus assessments (PPAs) (children with PFIC; [5]): 69% | mean proportion of positive pruritus assessments (PPAs) (children with PFIC; patients not using rifampicin): 81% | mean proportion of positive pruritus assessments (PPAs) (children with PFIC; patients using UDCA): 65% | mean proportion of positive pruritus assessments (PPAs) (children with PFIC; [6]): 66% | mean proportion of positive pruritus assessments (PPAs) (children with PFIC; patients using rifampicin): 56% | incidence of TEAEs (children with PFIC; patients not using UDCA): 87% | incidence of TEAEs (children with PFIC; [5]): 90% | incidence of TEAEs (children with PFIC; patients not using rifampicin): 86% | incidence of TEAEs (children with PFIC; patients using UDCA): 77% | incidence of TEAEs (children with PFIC; [6]): 78% | incidence of TEAEs (children with PFIC; patients using rifampicin): 75%
